Test results: patent US20240393292A1, “ALLERGY ANTIGEN AND EPITOPE THEREOF” (HOYU CO., LTD., priority 2019, published 2024)
One block for each substance: values may come before it.

Tested on: IgE antibodies from patients
Experiment: Wheat epitope mapping (2): overlapping 10-amino-acid peptide fragments shifted by one amino acid;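 as to Rank of partial sequence as epitope binding to IgE antibody: key = sequence deemed particularly important within the common 15-residue sequence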;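 as to epitope sequence binding to IgE antibody, rank (Key/Preferably/More preferably): key of grades: preferably = shorter partial sequence still acting as epitope; more preferably = sequence improving IgE binding; key = particularly important sequence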
Format: binding, human
How it was run: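 Cellulose-bound 10-mer peptides offset by one residue were probed with patient serum IgE and detected by chemiluminescence. Secondary-antibody-only signals were subtracted per peptide. Residual binding was expressed as % of the parent overlapping peptide, scored as none (<30%), poor (30–<50%), somewhat poor (50–<70%) or retained (≥70%).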

[1] = serum of patient P52 (child, general immediate type allergy to wheat), sequence without X
[2] = serum of patient P8 (WDEIA), sequence without X
[3] = serum of patient G7 (adult, general immediate type allergy to wheat)
[4] = serum of patient P8 (WDEIA), partial sequence
[5] = serum of patient G7 (adult, general immediate type allergy to wheat), sequence without X
[6] = serum of patient P21 (WDEIA), sequence without X
[7] = serum of patient G1 (adult, general immediate type allergy to wheat), sequence without X

Substance: 2289 (GGIDK; REGION 1..5: note = epitope) [compound 2289]
Epitope sequence binding to IgE antibody, rank of the sequence (Key/Preferably/More preferably) (serum of patient P33 (WDEIA), sequence without X): Key

Substance: 2250 (SRLLRGIRN; REGION 1..9: note = epitope) [compound 2250]
Epitope sequence binding to IgE antibody, rank of the sequence (Key/Preferably/More preferably) [1]: Preferably

Substance: 2271 (LGGIDKRV; REGION 1..8: note = epitope) [compound 2271]
Epitope sequence binding to IgE antibody, rank of the sequence (Key/Preferably/More preferably) [2]: More preferably

Substance: 2224 (IRNYRVA; REGION 1..7: note = epitope) [compound 2224]
Epitope sequence binding to IgE antibody, rank of the sequence (Key/Preferably/More preferably) (serum of patient P16 (WDEIA), sequence without X): Key

Substance: 1833 (KFLKN; REGION 1..5: note = epitope) [compound 1833]
epitope sequence binding to IgE antibody, rank (Key/Preferably/More preferably) [3]: Key

Substance: 1594 (QPQQPFP; REGION 1..7: note = epitope) [compound 1594]
Rank of partial sequence as epitope binding to IgE antibody [1]: Further preferably

Substance: 1526 (VQQQ; REGION 1..4: note = epitope) [compound 1526]
Rank of partial sequence as epitope binding to IgE antibody (serum of patient P10 (WDEIA), sequence without X): Key

Substance: 1684 (FVPISG; REGION 1..6: note = epitope) [compound 1684]
Rank of partial sequence as epitope binding to IgE antibody (serum of patient G9 (adult, general immediate type allergy to wheat), sequence without X): Key

Substance: 2231 (IRNY; REGION 1..4: note = epitope) [compound 2231]
Epitope sequence binding to IgE antibody, rank of the sequence (Key/Preferably/More preferably) (serum of patient P28 (WDEIA), sequence without X): Key

Substance: 1868 (TVRTLQ; REGION 1..6: note = epitope) [compound 1868]
epitope sequence binding to IgE antibody, rank (Key/Preferably/More preferably) (serum of patient P28 (WDEIA)): Key

Substance: 1244 (PIQQQP; REGION 1..6: note = epitope) [compound 1244]
Epitope sequence binding to IgE antibody, rank of the sequence (serum of patient P31 (WDEIA), sequence without X): Key

Substance: 1945 (FPGQQ; REGION 1..5: note = epitope) [compound 1945]
epitope sequence binding to IgE antibody, rank (Key/Preferably/More preferably) (serum of patient P22 (WDEIA)): Preferably

Substance: 2275 (KRVIERFEK; REGION 1..9: note = epitope) [compound 2275]
Epitope sequence binding to IgE antibody, rank of the sequence (Key/Preferably/More preferably) [2]: Key

Substance: 1755 (YLKK; REGION 1..4: note = epitope) [compound 1755]
epitope sequence binding to IgE antibody, rank (Key/Preferably/More preferably) (serum of patient P7 (WDEIA)): Key

Substance: 1374 (PWQQQPLP; REGION 1..8: note = epitope) [compound 1374]
Epitope sequence binding to IgE antibody, rank of the sequence (serum of patient P7 (WDEIA), sequence without X): Preferably

Substance: 2235 (SRLLRGIRN; REGION 1..9: note = epitope) [compound 2235]
Epitope sequence binding to IgE antibody, rank of the sequence (Key/Preferably/More preferably) (serum of patient P30 (WDEIA), sequence without X): Key

Substance: 1898 (QQFPGQQQ; REGION 1..8: note = epitope) [compound 1898]
epitope sequence binding to IgE antibody, rank (Key/Preferably/More preferably) (serum of patient P2 (WDEIA)): Key

Substance: 2301 (LGGIDK; REGION 1..6: note = epitope) [compound 2301]
Epitope sequence binding to IgE antibody, rank of the sequence (Key/Preferably/More preferably) (serum of patient G4 (adult, general immediate type allergy to wheat), sequence without X): Key

Substance: 2258 (LRGIRNYRVA; REGION 1..10: note = epitope) [compound 2258]
Epitope sequence binding to IgE antibody, rank of the sequence (Key/Preferably/More preferably) (serum of patient P55 (child, general immediate type allergy to wheat), sequence without X): Preferably

Substance: 1162 (SIDQNAQG; REGION 1..8: note = epitope) [compound 1162]
Epitope sequence binding to IgE antibody, rank of the sequence [5]: Further preferably

Substance: 1425 (YLQPQQPIS; REGION 1..9: note = epitope) [compound 1425]
Epitope sequence binding to IgE antibody, rank of the sequence (serum of patient P12 (WDEIA), sequence without X): Preferably

Substance: 2267 (KRVIERFEK; REGION 1..9: note = epitope) [compound 2267]
Epitope sequence binding to IgE antibody, rank of the sequence (Key/Preferably/More preferably) (serum of patient P5 (WDEIA), sequence without X): Preferably

Substance: 1484 (YLQPQQP; REGION 1..7: note = epitope) [compound 1484]
Rank of partial sequence as epitope binding to IgE antibody (serum of patient P34 (WDEIA), sequence without X): Key

Substance: 1360 (INVEN; REGION 1..5: note = epitope) [compound 1360]
Epitope sequence binding to IgE antibody, rank of the sequence (serum of patient P51 (child, general immediate type allergy to wheat), sequence without X): Preferably

Substance: 1814 (KELEAL; REGION 1..6: note = epitope) [compound 1814]
epitope sequence binding to IgE antibody, rank (Key/Preferably/More preferably) (serum of patient P27 (WDEIA)): Key

Substance: 1781 (KEVSSYLKKV; REGION 1..10: note = epitope) [compound 1781]
epitope sequence binding to IgE antibody, rank (Key/Preferably/More preferably) (serum of patient G4 (adult, general immediate type allergy to wheat)): Key

Substance: 1542 (QVPLVQQQQ; REGION 1..9: note = epitope) [compound 1542]
Rank of partial sequence as epitope binding to IgE antibody [6]: More preferably

Substance: 1659 (YNPDKVPF; REGION 1..8: note = epitope) [compound 1659]
Rank of partial sequence as epitope binding to IgE antibody [7]: Preferably

Substance: 1428 (YLQPQQPIS; REGION 1..9: note = epitope) [compound 1428]
Rank of partial sequence as epitope binding to IgE antibody (serum of patient P14 (WDEIA), sequence without X): Preferably

Substance: 1492 (YLQPQQPISQ; REGION 1..10: note = epitope) [compound 1492]
Rank of partial sequence as epitope binding to IgE antibody (serum of patient P36 (WDEIA), sequence without X): Preferably

Substance: 1919 (VPLVQQQ; REGION 1..7: note = epitope) [compound 1919]
epitope sequence binding to IgE antibody, rank (Key/Preferably/More preferably) (serum of patient P10 (WDEIA)): Key

Substance: 1369 (QQPLPPQQ; REGION 1..8: note = epitope) [compound 1369]
Epitope sequence binding to IgE antibody, rank of the sequence (Key/Preferably/More preferably/Further preferably) (serum of patient P2 (WDEIA), sequence without X): Preferably

Substance: 1341 (NRRALR; REGION 1..6: note = epitope) [compound 1341]
Epitope sequence binding to IgE antibody, rank of the sequence (serum of patient P32 (WDEIA), sequence without X): Key

Substance: 1417 (QQPISQQQAQ; REGION 1..10: note = epitope) [compound 1417]
Epitope sequence binding to IgE antibody, rank of the sequence [2]: Key

Substance: 1909 (VPLVQ; REGION 1..5: note = epitope) [compound 1909]
epitope sequence binding to IgE antibody, rank (Key/Preferably/More preferably) (serum of patient P7 (WDEIA)): Key

Substance: 2260 (SRLLR; REGION 1..5: note = epitope) [compound 2260]
Epitope sequence binding to IgE antibody, rank of the sequence (Key/Preferably/More preferably) [7]: Key

Substance: 1785 (LKKVGYNP; REGION 1..8: note = epitope) [compound 1785]
epitope sequence binding to IgE antibody, rank (Key/Preferably/More preferably) [3]: Key

Substance: 2362 (VTEIV; REGION 1..5: note = epitope) [compound 2362]
Epitope sequence binding to IgE antibody, rank of the sequence (Key/Preferably/More preferably) [6]: Key

Other lines, results leading:

Epitope sequence binding to IgE antibody, rank of the sequence (serum of patient P17 (WDEIA), partial sequence): Key
Substance: 2714 (GIGTVPVGRV; REGION 1..10: note = epitope) [compound 2714]

Epitope sequence binding to IgE antibody, rank of the sequence (serum of patient P2 (WDEIA), partial sequence): Key
Substance: 2494 (QVSF; REGION 1..4: note = epitope) [compound 2494]

Epitope sequence binding to IgE antibody, rank of the sequence (Key/Preferably/More preferably) (serum of patient P24 (WDEIA), sequence without X): Preferably
Substance: 2367 (VTEIV; REGION 1..5: note = epitope) [compound 2367]

Epitope sequence binding to IgE antibody, rank of the sequence [4]: Key
Substance: 2501 (SFQPSQLNPQ; REGION 1..10: note = epitope) [compound 2501]

Epitope sequence binding to IgE antibody, rank of the sequence (Key/Preferably/More preferably) (serum of patient P29 (WDEIA), sequence without X): Key
Substance: 2385 (VTEI; REGION 1..4: note = epitope) [compound 2385]

Epitope sequence binding to IgE antibody, rank of the sequence (serum of patient G7 (adult, general immediate type allergy to wheat), partial sequence): Key
Substance: 2609 (QLVQQLCC; REGION 1..8: note = epitope) [compound 2609]

Epitope sequence binding to IgE antibody, rank of the sequence (serum of patient G5 (adult, general immediate type allergy to wheat), partial sequence): Key
Substance: 2671 (AEMNKRSFK; REGION 1..9: note = epitope) [compound 2671]

Epitope sequence binding to IgE antibody, rank of the sequence (serum of patient P25 (WDEIA), partial sequence): Key
Substance: 2565 (QSTYQLVQ; REGION 1..8: note = epitope) [compound 2565]

Epitope sequence binding to IgE antibody, rank of the sequence [4]: Key
Substance: 2500 (QVSF; REGION 1..4: note = epitope) [compound 2500]

Epitope sequence binding to IgE antibody, rank of the sequence (serum of patient P54 (child, general immediate type allergy to wheat), partial sequence): Key
Substance: 2603 (QLVQQLC; REGION 1..7: note = epitope) [compound 2603]

Epitope sequence binding to IgE antibody, rank of the sequence (serum of patient P33 (WDEIA), partial sequence): Key
Substance: 2743 (YKIGGIGTV; REGION 1..9: note = epitope) [compound 2743]

Epitope sequence binding to IgE antibody, rank of the sequence (serum of patient P35 (WDEIA), partial sequence): Preferably
Substance: 2592 (YQLVQQ; REGION 1..6: note = epitope) [compound 2592]

Epitope sequence binding to IgE antibody, rank of the sequence (serum of patient P26 (WDEIA), partial sequence): Key
Substance: 2724 (GIGTVPVGRV; REGION 1..10: note = epitope) [compound 2724]

Epitope sequence binding to IgE antibody, rank of the sequence (serum of patient P31 (WDEIA), partial sequence): Preferably
Substance: 2583 (QLVQQ; REGION 1..5: note = epitope) [compound 2583]

Epitope sequence binding to IgE antibody, rank of the sequence (serum of patient P15 (WDEIA), partial sequence): Preferably
Substance: 2502 (SSQVSFQPSQ; REGION 1..10: note = epitope) [compound 2502]

Epitope sequence binding to IgE antibody, rank of the sequence (Key/Preferably/More preferably) [5]: Preferably
Substance: 2415 (IDRCAYV; REGION 1..7: note = epitope) [compound 2415]

Epitope sequence binding to IgE antibody, rank of the sequence (serum of patient G6 (adult, general immediate type allergy to wheat), partial sequence): Key
Substance: 2697 (YKGPTL; REGION 1..6: note = epitope) [compound 2697]

Epitope sequence binding to IgE antibody, rank of the sequence (serum of patient P53 (child, general immediate type allergy to wheat), partial sequence): Preferably
Substance: 2599 (QLVQQLCC; REGION 1..8: note = epitope) [compound 2599]
